In PubChem BioAssay (NCI) one finds TGI and GI50 data, which are given here for 12 compounds.

Test in all cases: NCI tumour cell line growth inhibition, 48 h
For experiment [1], the system named is M14 melanoma.
In experiment [2] the test system is SF-539 CNS.
Experiment [3] concerns HCT-15 colon.
The test system of experiment [4] is OVCAR-3 ovarian.
Experiment [5] has as its system COLO 205 colon.
The test system of experiment [6] is 786-0 renal.
Experiment [7] deals with TK-10 renal.
For experiment [8], the system named is NCI-H226 lung.
The subject of experiment [9] is ACHN renal.
Experiment [10] relates to HL-60(TB) leukemia.
Experiment [11] concerns MOLT-4 leukemia.

Molecules are shown by their SMILES.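 How tested: cells in 96-well plates exposed to compound for 48 hours at five concentrations. Here, GI50 denotes the concentration required for 50% inhibition of growth. TGI: total growth inhibition.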

Turning to `C/C(=N/N)c1sc(-c2nc(C)c(/C(C)=N\N)s2)nc1C`, the TGI in experiment [1] was above 100 µM; in experiment [2] it was above 100 µM; in experiment [3], above 60.8 µM; in experiment [4] it was above 100 µM; in [5], above 68.9 µM; in experiment [6], above 100 µM. In addition, the TGI was above 100 µM in [7]; above 100 µM in experiment [8]; above 100 µM in [9]; above 69.3 µM in experiment [10]; 83.3 µM in [11].

With `Cn1c(N)c(/C=C/C(=O)Oc2ccccc2)c(=O)n(C)c1=O`, the TGI in experiment [1], in [2], in [3], in [4], in experiment [5] and in experiment [6] was above 100 µM in each case. The TGI in [7], in [8], in experiment [9], in experiment [10] and in [11] was above 100 µM each time.

For the compound `C/C=C1/C(=Cc2[nH]c(C=c3[nH]/c(=C/C4=NC(=O)C(CC)=C4C)c(C)c3CCC(=O)O)c(CCC(=O)O)c2C)NC(=O)C1C` (stereo not drawn), the TGI is 6.11 µM in [1]; 23 µM in experiment [2]; above 50 µM in [3]; above 50 µM in experiment [4]; above 50 µM in experiment [5]; above 50 µM in [6]. Moreover, the TGI in [7] was above 50 µM; in experiment [8] it was 10.8 µM; in experiment [9], above 50 µM; in experiment [10] it was above 50 µM; in experiment [11], 37.2 µM.

Take `CC1(C)CCC[C@@]2(C)C1CC[C@@]1(CO1)[C@@H]2/C=C\C(C=O)CC=O` (stereo partly drawn): the TGI in experiment [1], in experiment [2], in experiment [3], in [4], in experiment [5] and in experiment [6] was above 100 µM each time. The TGI in experiment [7] is above 100 µM; in [8] it was above 100 µM; in experiment [9], above 100 µM; in experiment [10] it was above 74.4 µM; in experiment [11] it was 62.2 µM.

For the compound `CC(C)CC1NC(=O)CCC(NC(=O)C(Cc2ccc(O)cc2)NC(=O)OCc2ccccc2)C(=O)NC(Cc2ccccc2)C(=O)NC(Cc2ccccc2)NC1=O` (stereo not drawn), the TGI in experiment [1], in experiment [2], in experiment [3], in [4], in [5] and in [6] was above 100 µM each time. Further, the TGI in experiment [7], in [8], in experiment [9], in experiment [10] and in [11] was above 100 µM each time.

Turning to `COc1ccc(NC(/C(C(=O)C(=O)/C=C(\O)c2ccccc2)=C(\O)c2ccccc2)c2ccc(OC)cc2)cc1` (stereo not drawn), the TGI in experiment [1] was above 100 µM; in [2], above 100 µM; in experiment [3], above 100 µM; in experiment [4], 94.1 µM; in experiment [5], above 100 µM; in experiment [6], above 100 µM. The TGI in experiment [7] is above 100 µM; in experiment [8], above 100 µM; in [9] it was above 100 µM; in [10], 75.3 µM; in experiment [11], above 100 µM.

Consider `COc1ccc2[nH]c3c(O)c(-c4c(C)cc5c([nH]c6ccc(OC)cc65)c4O)c(C)cc3c2c1`, for which the TGI in experiment [1] turned out to be 7.99 µM; in experiment [2] it was 8.81 µM; in experiment [3] it was 8.2 µM; in [4] it was 7.79 µM; in [6], 8.62 µM; in [7] it was 8.19 µM. For the same compound, the TGI in experiment [8] turned out to be 9.06 µM; in experiment [9] it was 8.15 µM; in experiment [10] it was 4.96 µM; in experiment [11], 7.52 µM. Moreover, the figures for the GI50 in experiment [3], in experiment [10] and in experiment [11] were 4.2 µM, 0.0321 µM and 3.23 µM, respectively.

Turning to `CN1CCN(Cc2ccccc2)CC1CC#N` (stereo not drawn), the TGI in [2], in experiment [3], in experiment [4], in experiment [5], in experiment [6] and in experiment [7] was above 100 µM in each case. The TGI in [8], in [9], in experiment [10] and in experiment [11] was above 100 µM each time.

In the case of `CCOC(OC1=C(C#N)CCCC1)C(CC)[Se]c1ccccc1[N+](=O)[O-]` (stereo not drawn), the TGI in experiment [1] is 37.8 µM; in experiment [2], 37.8 µM; in experiment [3], 37.1 µM; in experiment [4] it was 95.4 µM; in [5] it was above 100 µM; in experiment [6], 34.2 µM. Besides, the TGI in [7] is above 100 µM; in experiment [8], 43 µM; in [9] it was 80.7 µM; in experiment [10], 46.1 µM; in experiment [11], 71.2 µM.

Turning to `Cc1ccc(CN2CCN(Cc3ccc(C)o3)C(C)C2)o1` (stereo not drawn), the TGI in experiment [1], in [2], in [3], in experiment [4], in [5] and in experiment [6] was above 100 µM in each case. For the same compound, the TGI in experiment [7], in experiment [8], in [9], in experiment [10] and in experiment [11] was above 100 µM in each case.

Take `CCN1C/C(=C\c2ccc(Cl)cc2)c2[nH]c(=O)c(C#N)c(-c3ccc(Cl)cc3)c2C1`: the TGI in experiment [1], in experiment [2], in experiment [3], in experiment [4], in [5] and in experiment [6] was above 100 µM throughout. Also, the TGI in [7], in experiment [8], in experiment [9], in [10] and in [11] was above 100 µM each time.

`Cc1ccc(O)c(C2=NNC(c3cccc(Cl)c3)C2)c1` (stereo not drawn): the TGI is above 100 µM in experiment [1]; above 100 µM in [2]; 29.3 µM in experiment [3]; above 100 µM in [4]; above 100 µM in experiment [5]; above 100 µM in experiment [6]. In addition, the TGI in experiment [7], in experiment [8], in experiment [9], in experiment [10] and in [11] was above 100 µM each time.
